Measured values: patent publication US11590117B2, “Treatment of a hematologic malignancy with 2-(4-chlorophenyl)-n-((2-(2,6-dioxopiperidin-3-yl)-1-oxoisoindolin-5-yl)methyl)-2,2-difluoroacetamide” (priority 2016, dated 2023)
Where two headings read alike, the source gives them in different places.

Key:
PBMCs = experiment: CellTiter-Glo (CTG) cell proliferation assay, 72 hours, anti-CD3 stimulated; assay type: cell-based, human; conditions: for IC50: Homo sapiens, PBMC
Protocol: Preparation of Solutions of Test Article: Compounds were plated into black 384-well plates (Corning Inc.) to a final DMSO volume of 0.1% assuming a maximal volume of 50 μL. A 10-point dose response starting at 10 μM with a 1:3 dilution was printed in duplicate by acoustic dispense using the EDC ATS-100 platform.
Cell Proliferation Assays: The effect of Compound 1 on the proliferation/viability of the hematological cell lines (Table 1 Table, Table 2 and Table 3), THLE-2, or PBMCs was assessed after 72 hours incubation using CTG (Promega), according to manufacturer's instructions. Hematological cell lines were dispensed into compound plates by a Multidrop™ Combi Reagent Dispenser (Thermo Scientific, Waltham, Mass.) at a concentration of 0.1 to 0.3×10^6 cells per mL in a 50 μL total volume. THLE-2 cells were seeded out at 1000 cells per well in 50 μL volume and incubated for 72 hours. At 72 hours, 25 μL per well of CTG was dispensed by a Multidrop™ Combi Reagent Dispenser and adenosine triphosphate (ATP) release by viable cells was measured as relative luminescence units after 30 minutes using the Envision platform.
For frozen PBMCs, cells were thawed at 37° C. for 2 minutes in RPMI with 10% FBS and cell counts and viability were measured on the ViCell as previously described. Peripheral blood mononuclear cells were washed and diluted to 1×10^6 cells per mL and dispensed by a Multidrop™ Combi Reagent Dispenser in a volume of 25 μL/well into the compound plates and incubated for 2 hours. After 2 hours, 25 μL of anti-CD3 antibody-bound beads (1 cell. 2 anti-human CD3 antibody-coated M-450 beads) were dispensed per well and incubated for a further 72 hours. After 72 hours, 15 μL of supernatants were collected for the analysis of interleukin (IL)-2 release using the Human IL-2 384-well Tissue Culture Kit (Meso Scale Diagnostics), according to the manufacturer's instructions, and the remaining cell suspension was processed with CTG.
In order to calculate the therapeutic window for Compound 1, the compound was counter-screened against the immortalized (but non-tumorigenic) human hepatocyte-derived cell line THLE-2 (Pfeifer, et al, Proc Natl Acad Sci USA 1993 90(11):5123-5127) and against primary human PBMCs. […] The Compound 1 therapeutic window for the 10 sensitive AML cell lines as compared to THLE-2 cells ranged from 4.1 (KG-1a) to 57 (HNT-34) (method 1) or from 5.7 (KG-1a) to 79.5 (HNT-34) (method 2); the Compound 1 therapeutic window as compared to PBMCs ranged from 2.6 (KG-1a) to 36 (HNT-34)), or from 1.5 (KG-1a) to 21 (HNT-34) (Table 6).
Cultures of 11 different AML cell lines were incubated 72 hours with Compound 1 at concentrations of 0.5 nM to 10 μM. Proliferation was assessed using the CellTitre-Glo® assay. Results for cultures incubated with Compound 1 were normalized to results for control cultures for each cell line. Inhibition of cell growth was also determined in THLE-2 cells at Compound 1 concentrations of 0.1 nM to 100 μM and in PBMCs at Compound 1 concentrations of 0.5 nM to […]. The Compound 1 therapeutic window was calculated using area under the curve (AUC; Activity Area [Barretina et al, Nature (2012) 483603-607] measurements (in arbitrary units) as determined using GraphPad Prism software for plots of cell proliferation vs concentration and dividing the AUC for the immortalized (but nontumorigenic) human THLE-2 hepatocyte cell line or PBMCs by the AUC for the AML cell line.
The effects of Compound 1 in healthy PBMCs were also assessed. Compound 1 was added to PBMC s from one donor at time zero and assessed at 72 hours. This was compared to PBMCs that were pre-activated and proliferating on anti-CD3 antibody-coated plates for 72 hours before Compound 1 was added and the cells were incubated for an additional 72 hours. HNT-34 cells were used as a sensitive positive control cell line. […]

MDS progenitor cells = experiment: MDS colony forming assay in Methocult; assay type: cell-based, human; conditions: 24 hours exposure; compared with liquid culture
Protocol: Methods. The effect of Compound 1 on high risk MDS samples was measured in an in vitro liquid culture as well as by colony assays in order to better define its effect on stem/progenitor cells. Bone marrow mononuclear cells (BMMCs) from high risk MDS patients were cultured in vitro in CellGro medium (GellGenix) supplemented with hLDL (40 μg/mL), SCF (50 ng/mL), FLT3 […] (50 ng/mL), IL-3 (10 ng/mL), IL-6 (25 ng/mL) and TPO (100 ng/mL), all from Peprotech. During culture, cells were exposed to different concentrations of Compound 1 (37, 111, 333 and 1000 nM) or DMSO control. After 24 hours, cells were washed twice to remove compound and maintained in culture up to one week, performing viable cell counting on days 1, 3 and 7. Just after compound washout, […] per condition were collected for colony forming assays and another […] were stained for intracellular flow cytometry.
For colony forming assays cells were seeded in Methocult media (Stem Cell Technologies), incubated at 37° C. during 14 days and scored by automatic counting using StemVision (Stem Cell Technologies).

O=C1CCC(N2Cc3cc(CNC(=O)C(F)(F)c4ccc(Cl)cc4)ccc3C2=O)C(=O)N1 (stereo not shown) [Compound 1, 2-(4-chlorophenyl)-N-((2-(2,6-dioxopiperidin-3-yl)-1-oxoisoindolin-5-yl)methyl)-2,2-difluoroacetamide]
IC50 (PBMCs; 72 h, PBMCs not pre-activated, 72 hours, read-out: CTG IC50): 100 nM | IC50 (PBMCs; 72 h, pre-activated PBMCs (72 hours on anti-CD3 plates before compound), 72 hours, CTG and viable cell count, read-out: antiproliferative IC50): > 10000 nM | IC50 (PBMCs; 72 h, primary human PBMCs, 72 hours, read-out: antiproliferative IC50): 120 nM | IC50 (PBMCs; pre-activated PBMCs, CTG and viable cell count, read-out: antiproliferative IC50): > 10000 nM | AUC Method 1 (PBMCs; PBMCs normal cells): 251.1 arbitrary units | AUC Method 2 (PBMCs; PBMCs normal cells): 145.1 arbitrary units | effect on MDS progenitor cells in colony forming assays (MDS progenitor cells): more acute
